Experimental data from ChEMBL document CHEMBL1201862, “PubChem BioAssay data set” (2004).
The source made the active and inactive calls.

Legend:
NADPH oxidase 1 = target: T1, NADPH oxidase 1 (Homo sapiens, UniProt Q9Y5S8); type: functional, cell-based;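 also: Cell-based assay with luminescence read-out, IC50 derived from inhibitor dose-response curves; intracellular ROS from endogenous NOX1 in intact HT29 colon cancer cells; potency of inhibitors that lower the ROS luminescence signal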
T1 sequence (Q9Y5S8 whole entry): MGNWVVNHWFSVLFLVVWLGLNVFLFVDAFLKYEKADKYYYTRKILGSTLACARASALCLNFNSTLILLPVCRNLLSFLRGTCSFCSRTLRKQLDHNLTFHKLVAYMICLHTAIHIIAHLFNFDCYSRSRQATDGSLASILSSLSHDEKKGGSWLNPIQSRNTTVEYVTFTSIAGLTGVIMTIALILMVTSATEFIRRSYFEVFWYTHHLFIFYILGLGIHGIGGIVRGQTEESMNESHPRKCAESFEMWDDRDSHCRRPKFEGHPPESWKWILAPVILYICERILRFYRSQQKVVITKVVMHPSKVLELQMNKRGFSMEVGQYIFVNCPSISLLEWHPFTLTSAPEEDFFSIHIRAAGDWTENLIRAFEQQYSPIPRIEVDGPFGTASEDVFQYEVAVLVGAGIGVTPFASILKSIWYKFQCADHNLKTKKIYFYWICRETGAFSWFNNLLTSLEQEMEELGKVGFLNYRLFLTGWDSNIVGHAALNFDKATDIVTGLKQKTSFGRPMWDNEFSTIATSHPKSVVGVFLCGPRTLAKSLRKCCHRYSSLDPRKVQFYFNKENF

[1] = target: T2, RNA-binding protein pos-1 (Caenorhabditis elegans, UniProt G5EF15); assay: disruptors of C. elegans POS-1 RNA interaction – biochemical, fluorescence polarization, dose response (AID 1964);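 also: purified POS-1 fused to maltose binding protein made in E. coli; potency of compounds blocking POS-1 binding to fluorescent RNA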
T2 sequence (G5EF15 whole entry): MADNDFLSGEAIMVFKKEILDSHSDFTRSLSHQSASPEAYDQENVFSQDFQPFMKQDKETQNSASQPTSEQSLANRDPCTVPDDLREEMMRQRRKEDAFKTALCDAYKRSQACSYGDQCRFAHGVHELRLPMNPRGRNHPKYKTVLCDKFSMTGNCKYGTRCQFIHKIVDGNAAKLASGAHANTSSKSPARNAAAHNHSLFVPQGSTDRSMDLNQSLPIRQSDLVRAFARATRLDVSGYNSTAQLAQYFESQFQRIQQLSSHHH

[2] = NIH-3T3 fibroblast cytotoxicity, dose response, cytotoxicity control, cell-based, fluorescence, Alamar Blue, secondary assay (AID 2327); type: functional;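 also: NIH-3T3 mouse fibroblasts cultured with fluconazole at 8 µg/mL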
[3] = mitochondrial function rescue without frataxin homolog – Friedreich's ataxia, plus single-dose screen, dose response (AID 1465); type: functional;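 also: yeast depleted of Yfh1p frataxin homolog grown on glycerol needing respiration; WST-1 tetrazolium dye reduction as measure of cellular dehydrogenase metabolic activity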
[4] = target: T3, Zinc finger protein mex-5 (Caenorhabditis elegans, UniProt Q9XUB2); assay: potency of MEX-5 RNA-binding blockers – biochemical, C. elegans, fluorescence polarization, dose response (AID 1960)
T3 sequence (Q9XUB2 whole entry): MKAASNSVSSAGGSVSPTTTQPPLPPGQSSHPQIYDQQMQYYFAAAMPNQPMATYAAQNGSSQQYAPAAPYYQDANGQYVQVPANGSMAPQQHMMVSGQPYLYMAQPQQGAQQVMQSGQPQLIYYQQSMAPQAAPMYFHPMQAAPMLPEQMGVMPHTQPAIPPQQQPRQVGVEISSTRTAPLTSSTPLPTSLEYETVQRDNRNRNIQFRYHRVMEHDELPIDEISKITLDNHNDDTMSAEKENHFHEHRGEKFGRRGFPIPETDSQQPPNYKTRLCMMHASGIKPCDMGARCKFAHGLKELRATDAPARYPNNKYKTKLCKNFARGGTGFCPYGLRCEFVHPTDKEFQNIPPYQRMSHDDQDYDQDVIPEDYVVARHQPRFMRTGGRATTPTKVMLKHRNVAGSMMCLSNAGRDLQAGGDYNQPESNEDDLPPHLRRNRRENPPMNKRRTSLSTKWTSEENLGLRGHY

[5] = fluconazole-exposed Candida albicans growth modulators – fluorescence, retest, confirmation (AID 2467); type: functional, cell-based
[6] = target: Bifunctional protein GlmU (Mycobacterium tuberculosis, UniProt P9WMN3); assay: Inhibitors of Mycobacterial Glucosamine-1-phosphate acetyl transferase (GlmU). Secondary screen.; design: species or system Mycobacterium tuberculosis H37Rv
Chain of Bifunctional protein GlmU (P9WMN3 whole entry): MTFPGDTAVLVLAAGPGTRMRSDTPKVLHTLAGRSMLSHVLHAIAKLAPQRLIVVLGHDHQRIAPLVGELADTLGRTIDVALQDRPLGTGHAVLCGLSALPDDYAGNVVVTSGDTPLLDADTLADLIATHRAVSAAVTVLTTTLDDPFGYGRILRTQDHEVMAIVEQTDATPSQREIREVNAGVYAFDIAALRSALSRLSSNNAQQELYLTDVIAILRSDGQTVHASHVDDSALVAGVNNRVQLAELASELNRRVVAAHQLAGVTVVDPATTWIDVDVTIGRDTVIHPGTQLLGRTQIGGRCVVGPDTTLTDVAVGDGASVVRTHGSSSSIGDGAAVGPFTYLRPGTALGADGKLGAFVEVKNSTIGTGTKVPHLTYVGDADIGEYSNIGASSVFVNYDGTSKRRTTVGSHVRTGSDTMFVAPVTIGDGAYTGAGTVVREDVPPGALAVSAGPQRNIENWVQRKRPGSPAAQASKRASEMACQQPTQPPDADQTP

[7] = target: Induced myeloid leukemia cell differentiation protein Mcl-1 (Homo sapiens, UniProt Q07820); type: functional
Chain of Induced myeloid leukemia cell differentiation protein Mcl-1 (Q07820 whole entry): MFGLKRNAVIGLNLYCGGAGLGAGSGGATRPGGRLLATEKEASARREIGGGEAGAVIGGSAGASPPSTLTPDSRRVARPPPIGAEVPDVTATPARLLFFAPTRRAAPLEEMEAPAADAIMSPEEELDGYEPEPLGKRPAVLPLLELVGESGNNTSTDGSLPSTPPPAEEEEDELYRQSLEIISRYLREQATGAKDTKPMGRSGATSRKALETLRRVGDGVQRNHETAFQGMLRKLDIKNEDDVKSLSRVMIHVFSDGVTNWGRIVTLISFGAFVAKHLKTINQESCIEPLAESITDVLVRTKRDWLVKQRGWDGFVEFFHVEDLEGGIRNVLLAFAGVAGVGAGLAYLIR

[8] = Trypanosoma cruzi growth suppression in host cells – NIH3T3 host cells, beta-gal luminescence, confirmation (AID 2044); type: functional, cell-based;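 also: intracellular parasites grown in NIH/3T3 mouse fibroblasts as host cells; luminescent beta-galactosidase reporter signal from transgenic T. cruzi replicating inside host cells; inhibitors lower the luminescence signal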
[9] = NIH3T3 cell viability loss – ATP luminescence, mouse fibroblasts, counter-screen, dose response (AID 2010); type: functional, cell-based;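 also: cells exposed to compound for about 90 hours before reading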
Phosphomannomutase 2 = target: T4, Phosphomannomutase 2 (Homo sapiens, UniProt O15305); assay: Counter screen SAR assay for PMM2 inhibitors via a fluorescence intensity assay. [Related pubchem assays (depositor defined):AID1545, AID1574]
T4 sequence (O15305 whole entry): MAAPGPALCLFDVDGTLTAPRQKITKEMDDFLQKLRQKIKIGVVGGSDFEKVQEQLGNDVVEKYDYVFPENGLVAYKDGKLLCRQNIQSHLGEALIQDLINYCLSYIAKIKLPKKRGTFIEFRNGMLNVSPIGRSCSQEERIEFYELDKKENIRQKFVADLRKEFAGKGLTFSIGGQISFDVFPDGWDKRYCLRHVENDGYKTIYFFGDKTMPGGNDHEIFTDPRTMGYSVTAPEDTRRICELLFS

[10] = target: T5, Mannose-6-phosphate isomerase (Homo sapiens, UniProt P34949); assay: MPI enzyme activity inhibition – biochemical, fluorescence intensity, coupled assay, primary screen (AID 1209)
T5 sequence (P34949 whole entry): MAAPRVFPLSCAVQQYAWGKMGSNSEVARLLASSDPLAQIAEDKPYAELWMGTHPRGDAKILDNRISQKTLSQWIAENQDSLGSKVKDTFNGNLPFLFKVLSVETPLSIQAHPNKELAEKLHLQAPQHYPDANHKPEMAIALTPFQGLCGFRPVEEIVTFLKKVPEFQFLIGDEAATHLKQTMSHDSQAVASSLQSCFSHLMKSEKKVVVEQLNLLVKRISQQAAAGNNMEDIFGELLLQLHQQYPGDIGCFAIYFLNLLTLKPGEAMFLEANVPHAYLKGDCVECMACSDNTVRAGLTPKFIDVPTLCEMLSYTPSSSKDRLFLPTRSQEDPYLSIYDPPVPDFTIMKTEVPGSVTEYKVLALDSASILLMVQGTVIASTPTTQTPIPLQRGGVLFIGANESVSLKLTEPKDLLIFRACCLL

[11] = target: FAD-linked sulfhydryl oxidase ALR (Homo sapiens, UniProt P55789); assay: ALR-catalysed DTT oxidation blockers – biochemical, H2O2 detection, luminescence, cherry-pick, dose response (AID 493248)
Chain of FAD-linked sulfhydryl oxidase ALR (P55789 whole entry): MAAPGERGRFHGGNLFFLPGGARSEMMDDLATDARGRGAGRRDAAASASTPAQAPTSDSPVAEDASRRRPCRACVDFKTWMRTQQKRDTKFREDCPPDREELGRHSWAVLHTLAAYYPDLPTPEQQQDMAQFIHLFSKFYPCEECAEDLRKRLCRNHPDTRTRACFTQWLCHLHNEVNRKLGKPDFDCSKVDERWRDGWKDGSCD

[12] = target: T5, Mannose-6-phosphate isomerase; assay: phosphomannose isomerase inhibition – biochemical, fluorescence intensity, confirmation (AID 1535)
[13] = target: DNA dC->dU-editing enzyme APOBEC-3A (Homo sapiens, UniProt P31941); assay: A3A deaminase inhibition for selectivity – biochemical, dose response (AID 504722); type: functional
Chain of DNA dC->dU-editing enzyme APOBEC-3A (P31941 whole entry): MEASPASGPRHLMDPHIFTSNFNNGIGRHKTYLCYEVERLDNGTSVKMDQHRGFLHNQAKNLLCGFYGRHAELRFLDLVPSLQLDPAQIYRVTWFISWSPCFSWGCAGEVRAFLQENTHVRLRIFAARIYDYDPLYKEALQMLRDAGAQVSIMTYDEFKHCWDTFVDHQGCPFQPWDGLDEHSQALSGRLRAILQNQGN

[14] = target: DNA dC->dU-editing enzyme APOBEC-3G (Homo sapiens, UniProt Q9HC16); assay: Dose Response confirmation of small molecule APOBEC3G DNA Deaminase Inhibitors via a fluorescence-based single-stranded DNA deaminase assay. [Related pubchem assays (depositor defined):AID493012, AID493028]; type: functional
[15] = target: Epstein-Barr nuclear antigen 1 (Epstein-Barr virus (strain B95-8) (HHV-4) (Human herpesvirus 4), UniProt P03211); assay: inhibition of EBV nuclear antigen 1 DNA binding – biochemical, fluorescence polarization, 1536-well, dose response (AID 2381); design: species or system human gammaherpesvirus 4;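 also: fluorescence polarization of a Cy5 DNA probe bound by EBNA-1 protein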
Chain of Epstein-Barr nuclear antigen 1 (P03211 whole entry): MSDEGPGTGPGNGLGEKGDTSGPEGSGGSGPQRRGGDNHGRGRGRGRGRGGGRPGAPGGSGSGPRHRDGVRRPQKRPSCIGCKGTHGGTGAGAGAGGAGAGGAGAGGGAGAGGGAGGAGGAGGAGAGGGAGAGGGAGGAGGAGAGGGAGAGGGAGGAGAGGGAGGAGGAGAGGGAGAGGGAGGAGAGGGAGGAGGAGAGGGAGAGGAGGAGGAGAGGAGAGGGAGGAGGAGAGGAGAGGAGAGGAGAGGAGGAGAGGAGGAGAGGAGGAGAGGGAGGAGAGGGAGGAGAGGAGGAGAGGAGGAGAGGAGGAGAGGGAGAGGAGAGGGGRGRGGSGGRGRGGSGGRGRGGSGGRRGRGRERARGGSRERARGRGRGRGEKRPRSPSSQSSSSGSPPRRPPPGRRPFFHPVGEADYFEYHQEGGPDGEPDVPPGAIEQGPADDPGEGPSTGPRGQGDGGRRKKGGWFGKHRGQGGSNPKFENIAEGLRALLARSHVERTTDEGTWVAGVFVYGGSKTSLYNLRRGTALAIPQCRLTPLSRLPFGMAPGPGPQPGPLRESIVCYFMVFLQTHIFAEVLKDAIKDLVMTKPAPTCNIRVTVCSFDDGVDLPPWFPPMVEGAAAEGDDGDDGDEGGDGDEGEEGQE

[16] = target: Lytic switch protein BZLF1 (Epstein-Barr virus (strain B95-8) (HHV-4) (Human herpesvirus 4), UniProt P03206); assay: inhibition of BZLF1 ZTA DNA binding – biochemical, fluorescence polarization, Epstein-Barr virus, 1536-well, counter-screen for EBNA-1 inhibitor project, dose response (AID 2377); design: species or system human gammaherpesvirus 4;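 also: fluorescence polarization of Cy5-labelled ZRE DNA probe bound by purified Zta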
Chain of Lytic switch protein BZLF1 (P03206 whole entry, the tested form may be a part): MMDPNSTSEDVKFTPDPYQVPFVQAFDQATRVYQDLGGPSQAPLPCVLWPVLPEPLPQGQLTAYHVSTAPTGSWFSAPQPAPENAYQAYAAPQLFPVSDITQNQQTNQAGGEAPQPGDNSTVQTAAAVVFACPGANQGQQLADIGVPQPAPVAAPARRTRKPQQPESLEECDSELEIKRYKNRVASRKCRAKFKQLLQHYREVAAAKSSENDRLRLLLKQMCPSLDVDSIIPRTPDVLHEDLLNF

[17] = target: T6, Polyadenylate-binding protein 1 (Homo sapiens, UniProt P11940); assay: MLLE domain peptide-binding blockers, IC50 – biochemical, fluorescence polarization, FITC-PAM2 peptide, dose response (AID 602259); type: functional; details: read-out: IC50_Mean
T6 sequence (P11940 whole entry, the tested form may be a part): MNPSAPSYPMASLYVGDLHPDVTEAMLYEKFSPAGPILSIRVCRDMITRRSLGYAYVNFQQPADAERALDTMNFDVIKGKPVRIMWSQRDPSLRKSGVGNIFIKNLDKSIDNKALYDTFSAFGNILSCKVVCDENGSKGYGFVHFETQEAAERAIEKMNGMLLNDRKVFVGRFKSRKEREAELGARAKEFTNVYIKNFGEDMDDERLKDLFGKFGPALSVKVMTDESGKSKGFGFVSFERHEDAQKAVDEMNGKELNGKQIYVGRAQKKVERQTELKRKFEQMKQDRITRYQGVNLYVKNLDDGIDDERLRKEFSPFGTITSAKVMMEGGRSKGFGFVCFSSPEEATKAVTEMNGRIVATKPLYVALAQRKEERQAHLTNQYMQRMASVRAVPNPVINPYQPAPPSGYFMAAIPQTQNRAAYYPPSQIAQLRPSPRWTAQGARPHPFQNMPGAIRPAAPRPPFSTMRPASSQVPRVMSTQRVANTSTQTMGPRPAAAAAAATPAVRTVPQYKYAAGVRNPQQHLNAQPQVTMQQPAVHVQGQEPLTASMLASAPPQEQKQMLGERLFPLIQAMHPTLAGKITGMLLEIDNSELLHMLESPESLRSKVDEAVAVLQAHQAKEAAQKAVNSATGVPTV

[18] = target: T6, Polyadenylate-binding protein 1; assay: MLLE binding blockers, Cy5 peptide tracer – biochemical, fluorescence polarization, Cy5-PAM2 peptide, secondary, miRNA deadenylation inhibitor project, dose response (AID 602260); type: functional; details: read-out: IC50_Mean
Ion channel NompC = Ion channel NompC (Danio rerio, UniProt Q7T1G6); assay: Fluorescence counterscreen assay for TRPML3 agonists: dose response cell-based high-throughput screening assay to identify agonists of the transient receptor potential channel N1 (TRPN1). [Related pubchem assays: 1526, 1424, 1448 ]; type: functional
Chain of Ion channel NompC (Q7T1G6 whole entry): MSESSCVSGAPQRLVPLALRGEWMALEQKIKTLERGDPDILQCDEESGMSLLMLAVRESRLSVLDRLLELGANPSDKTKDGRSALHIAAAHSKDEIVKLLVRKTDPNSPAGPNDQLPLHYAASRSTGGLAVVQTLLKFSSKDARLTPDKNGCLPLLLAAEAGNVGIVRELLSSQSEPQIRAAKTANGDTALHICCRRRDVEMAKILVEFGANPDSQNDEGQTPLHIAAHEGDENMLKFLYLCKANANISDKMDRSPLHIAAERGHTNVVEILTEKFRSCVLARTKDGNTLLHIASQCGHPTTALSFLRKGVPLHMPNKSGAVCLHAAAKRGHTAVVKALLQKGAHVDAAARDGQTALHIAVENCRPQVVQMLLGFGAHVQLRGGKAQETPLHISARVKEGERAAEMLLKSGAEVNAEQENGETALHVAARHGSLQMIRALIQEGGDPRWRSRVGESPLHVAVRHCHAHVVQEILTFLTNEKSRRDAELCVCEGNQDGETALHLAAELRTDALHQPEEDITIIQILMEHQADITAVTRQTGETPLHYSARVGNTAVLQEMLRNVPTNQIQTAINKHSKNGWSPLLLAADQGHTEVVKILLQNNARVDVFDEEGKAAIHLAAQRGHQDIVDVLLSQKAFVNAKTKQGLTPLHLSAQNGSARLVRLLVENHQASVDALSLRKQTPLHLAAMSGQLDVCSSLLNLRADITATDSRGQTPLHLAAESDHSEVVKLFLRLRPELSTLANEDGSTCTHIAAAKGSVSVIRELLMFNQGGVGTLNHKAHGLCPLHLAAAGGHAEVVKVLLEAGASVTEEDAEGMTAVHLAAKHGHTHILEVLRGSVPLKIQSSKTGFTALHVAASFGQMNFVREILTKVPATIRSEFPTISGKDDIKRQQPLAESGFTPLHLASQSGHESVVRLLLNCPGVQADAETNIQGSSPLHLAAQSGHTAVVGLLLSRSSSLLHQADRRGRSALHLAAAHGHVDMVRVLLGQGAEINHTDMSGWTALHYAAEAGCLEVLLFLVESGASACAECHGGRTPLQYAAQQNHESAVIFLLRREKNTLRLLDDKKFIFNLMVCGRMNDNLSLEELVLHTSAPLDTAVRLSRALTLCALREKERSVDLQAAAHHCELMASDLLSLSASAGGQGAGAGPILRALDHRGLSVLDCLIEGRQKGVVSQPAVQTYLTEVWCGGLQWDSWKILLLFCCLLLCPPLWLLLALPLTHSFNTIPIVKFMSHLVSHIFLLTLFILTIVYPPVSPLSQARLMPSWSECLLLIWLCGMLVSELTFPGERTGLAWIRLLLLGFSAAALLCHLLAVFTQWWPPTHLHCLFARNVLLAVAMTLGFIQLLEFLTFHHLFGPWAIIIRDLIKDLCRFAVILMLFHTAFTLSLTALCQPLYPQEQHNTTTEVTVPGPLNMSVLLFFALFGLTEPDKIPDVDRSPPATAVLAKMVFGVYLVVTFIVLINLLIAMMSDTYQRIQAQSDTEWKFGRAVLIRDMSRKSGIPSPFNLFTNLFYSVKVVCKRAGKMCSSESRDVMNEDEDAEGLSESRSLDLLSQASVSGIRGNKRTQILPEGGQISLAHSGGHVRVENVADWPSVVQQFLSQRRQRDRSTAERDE

Mucolipin-3 = Mucolipin-3 (Homo sapiens, UniProt Q8TDD5); assay: Dose response cell-based high-throughput screening assay for agonists of the transient receptor potential channel ML3 (TRPML3). [Related pubchem assays: 1526, 1424, 1448 ]; type: functional
Chain of Mucolipin-3 (Q8TDD5 whole entry): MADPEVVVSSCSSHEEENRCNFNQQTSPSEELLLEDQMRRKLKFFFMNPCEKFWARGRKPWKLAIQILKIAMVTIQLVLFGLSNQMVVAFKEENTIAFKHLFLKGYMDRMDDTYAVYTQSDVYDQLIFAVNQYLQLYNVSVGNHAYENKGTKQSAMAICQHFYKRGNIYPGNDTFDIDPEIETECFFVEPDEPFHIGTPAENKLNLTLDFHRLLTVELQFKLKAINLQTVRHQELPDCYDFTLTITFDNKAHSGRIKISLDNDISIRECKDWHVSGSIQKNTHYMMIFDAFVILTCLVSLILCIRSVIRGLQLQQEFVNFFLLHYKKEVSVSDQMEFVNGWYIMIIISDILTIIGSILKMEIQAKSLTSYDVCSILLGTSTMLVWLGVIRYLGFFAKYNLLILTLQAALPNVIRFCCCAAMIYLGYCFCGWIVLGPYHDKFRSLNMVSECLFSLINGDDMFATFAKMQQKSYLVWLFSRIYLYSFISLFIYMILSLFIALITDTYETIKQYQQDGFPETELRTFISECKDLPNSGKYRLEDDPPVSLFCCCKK

Compound: O=[N+]([O-])c1cccc(-c2nc(-c3ccccc3)c(-c3ccccc3)[nH]2)c1
- IC50 (NADPH oxidase 1): > 17 µM (not active)

Compound: CN(C)S(=O)(=O)c1cccc(NC(=S)N/N=C/c2ccc(O)c(O)c2O)c1
- EC50 [1]: 15 µM (active)
- EC50 [2]: > 150 µM (inactive)
- EC50 [3]: > 100 µM (active)
- EC50 [4]: 3.48 µM (active)
- EC50 [5]: > 38 µM (not active)
- IC50 [6]: 68.4 µM (active)
- IC50 [7]: 1.17 µM (active)

Compound: CCCCc1c(CCC)c(=N)c2ccccc2n1C
- EC50 (cells): 0.017 µM (active)
- EC50 [8]: < 0.1 µM (active)
- EC50 [9]: > 60 µM (inconclusive)

Compound: COc1ccc(-c2n[nH]c(=S)[nH]2)cc1OC
- IC50 (Phosphomannomutase 2): > 100 µM (inactive)
- IC50 [10]: 8.55 µM (active)
- AC50 [11]: 0.011 µM (active)
- IC50 [12]: 29 µM (active)
- IC50 [13]: > 100 µM (inactive)
- IC50 [14]: 3.45 µM (active)

Compound: Cc1ccccc1OCCn1cc(/C=C(\C#N)C(=O)NCc2ccco2)c2ccccc21
- IC50 [15]: 39.9 µM (not active)
- IC50 [16]: > 111 µM (not active)

Compound: O=C1C(Cl)=C(N2CCN(Cc3ccccc3)CC2)C(=O)N1Cc1ccccc1
- IC50 [17]: > 66 µM (inactive)
- IC50 [18]: > 66 µM (inactive)
- EC50 (Ion channel NompC): > 29.9 µM (not active)
- EC50 (Mucolipin-3): 5.29 µM (active)
